For experiment [1], the target named is T1, androgen receptor (Homo sapiens, UniProt P10275).
T1 sequence (P10275 1-920 Q868H): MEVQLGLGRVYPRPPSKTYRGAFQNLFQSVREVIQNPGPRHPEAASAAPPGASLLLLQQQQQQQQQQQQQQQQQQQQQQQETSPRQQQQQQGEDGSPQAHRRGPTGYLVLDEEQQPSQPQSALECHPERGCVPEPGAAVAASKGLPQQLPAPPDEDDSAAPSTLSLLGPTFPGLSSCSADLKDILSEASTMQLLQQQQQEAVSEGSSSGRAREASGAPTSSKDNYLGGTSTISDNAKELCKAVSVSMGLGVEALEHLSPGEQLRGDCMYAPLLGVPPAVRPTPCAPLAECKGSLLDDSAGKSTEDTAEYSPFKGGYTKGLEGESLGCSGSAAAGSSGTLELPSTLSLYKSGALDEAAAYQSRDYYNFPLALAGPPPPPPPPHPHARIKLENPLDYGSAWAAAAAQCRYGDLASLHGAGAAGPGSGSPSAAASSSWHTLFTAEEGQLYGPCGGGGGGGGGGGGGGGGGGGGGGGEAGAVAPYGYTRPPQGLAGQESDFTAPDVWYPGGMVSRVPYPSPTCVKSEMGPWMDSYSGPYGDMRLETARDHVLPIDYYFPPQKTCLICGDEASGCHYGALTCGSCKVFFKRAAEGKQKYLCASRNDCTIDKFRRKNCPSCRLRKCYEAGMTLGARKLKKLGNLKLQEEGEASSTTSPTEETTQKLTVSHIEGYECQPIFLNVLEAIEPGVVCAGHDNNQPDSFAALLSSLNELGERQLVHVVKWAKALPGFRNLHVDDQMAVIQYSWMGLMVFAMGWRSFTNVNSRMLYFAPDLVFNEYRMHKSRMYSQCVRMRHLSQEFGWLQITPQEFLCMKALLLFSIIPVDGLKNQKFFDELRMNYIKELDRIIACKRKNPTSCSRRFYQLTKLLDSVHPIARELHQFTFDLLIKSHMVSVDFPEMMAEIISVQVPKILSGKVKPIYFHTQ
The experiment in a line: AR antagonist cell assay (MDA-MB453-MMTV clone 54-19 luciferase reporter, 100 pM DHT). The experiment is classed as cell-based. To be noted: MDA-MB453-MMTV clone 54-19, inhibition of 100 pM DHT induction, 17 hr; mean of multiple tests; read-out: AR Cell IC50. The procedure:
The compounds ability to antagonize the effects of androgen on the androgen receptor were determined in a whole cell assay as described immediately below.
Experimental Procedure for AR Antagonist Cell Assay
This cell line is a stable transfected cell line with MDA-MB453 cell background (a human breast tumor cell line expressing androgen receptor). A MMTV minimal promoter containing ARE was first cloned in front of a firefly luciferase reporter gene. Then the cascade was cloned into transfection vector pUV120puro. […] Puromycin resistant stable cell line was selected. Cell Culture Media and Reagents:
Plating medium: DMEM (phenol red free), 10% charcoal treated HyClone serum, 1% L-glutamine
Assay medium: DMEM (phenol red free), 1% charcoal treated HyClone serum, 1% L-glutamine, and 1% penicillin/streptomycin
• 1. Cells are maintained in culture medium, splitting cells when they reach 80-90% confluence • 2. To test compounds, 10,000 cells/well are plated to opaque 96 cell culture plate in 100 ul/well plating medium, culture for overnight at 37° C. in cell culture incubator • 3. […] Add 10 ul/well freshly prepared DHT (final concentration at 100 pM) to each well, incubate at 37° C. for 17 hr (overnight) • 5.
The results are reported as the mean of multiple tests as described below (the numbers of tests are indicated in the footnote). N.D. denotes that the compound was not tested.
(In general: Reporter assays use an easily measured gene product as a stand-in for the process of interest.)

Experiment [2] addresses T2, human androgen receptor (hAR) (Homo sapiens, UniProt P10275).
T2 construct: made in house; host or cells: baculovirus/Sf9 insect cells (crude extract)
T2 sequence (P10275 1-920): T1 sequence (P10275 1-920 Q868H) with H868Q
Description: Competitive binding analysis on baculovirus/Sf9 generated hAR extracts with 3H-DHT tracer. The note with it: hAR extract, 1 nM 3H-DHT, one hour at 4° C; mean of multiple tests; read-out: AR Binding IC50. The procedure:
The compounds of Formula I have affinity for the androgen receptor. […] The description below describes how the assay was carried out.
Competitive binding analysis was performed on baculovirus/Sf9 generated hAR extracts in the presence or absence of different concentrations of test agent and a fixed concentration of ^3H-dihydrotestosterone (^3H-DHT) as tracer. This binding assay method is a modification of a protocol previously described (Liao S., et. al. J. Steroid Biochem. 20:11-17 1984). Briefly, progressively decreasing concentrations of compounds are incubated in the presence of hAR extract (Chang et al. P.N.A.S. Vol. 89, pp. […], 1992), hydroxylapatite, and 1 nM^3H-DHT for one hour at 4° C. Subsequently, the binding reactions are washed three times to completely remove excess unbound ^3H-DHT. hAR bound ^3H-DHT levels are determined in the presence of compounds (=i.e competitive binding) and compared to levels bound when no competitor is present (=i.e. maximum binding). Compound binding affinity to the hAR is expressed as the concentration of compound at which one half of the maximum binding is inhibited. Table II below provides the results that were obtained for selected compounds (reported data is the mean of multiple tests as shown below)

Substitutions are numbered along the chain they refer to.

As for `CC(C)CC(Oc1ccc(C#N)c(C(F)(F)F)c1)C(=O)NCc1ccc2c(c1)OCO2` (stereo not shown) [Example 24, 2-(4-Cyano-3-trifluoromethyl-phenoxy)-4-methyl-pentanoic acid (benzo[1,3]dioxol-5-yl-methyl)-amide], the IC50 (in general, the point on the concentration scale where inhibition reaches its midpoint) in experiment [1] turned out to be 799 nM; in experiment [2], 56 nM. Consider `CCCC(Oc1ccc(C#N)c(C(F)(F)F)c1)C(=O)NCc1ccc(C)cc1C` (stereo not shown) [Example 45, 2-(4-Cyano-3-trifluoromethyl-phenoxy)-pentanoic acid-2,4-dimethyl-benzylamide], for which the values for the IC50 in experiment [1] and in experiment [2] were above 1000 nM and 58 nM, respectively.

`CCOc1ccccc1CNC(=O)C(CC(C)C)Oc1ccc(C#N)c(C(F)(F)F)c1` (stereo not shown) [Example 36, 2-(4-Cyano-3-trifluoromethyl-phenoxy)-4-methyl-pentanoic acid-2-ethoxy-benzylamide]: the IC50 in experiment [1] was above 1000 nM; in experiment [2], 42 nM.

In the case of `COc1ccc(CNC(=O)C(CC(C)C)Oc2ccc(C#N)c(C(F)(F)F)c2)cc1` (stereo not shown) [Example 39, 2-(4-Cyano-3-trifluoromethyl-phenoxy)-4-methyl-pentanoic acid-4-methoxy-benzylamide], the IC50 in experiment [1] is above 1000 nM; in experiment [2], 42 nM. For `CCSCCNC(=O)C(CC(C)C)Oc1ccc(C#N)c(C(F)(F)F)c1` (stereo not shown) [Example 114, 2-(4-Cyano-3-trifluoromethyl-phenoxy)-4-methyl-pentanoic acid (2-ethyl sulfanyl-ethyl)-amide], the figures for the IC50 in experiment [1] and in experiment [2] were 727 nM and 102 nM, respectively.

In the case of `CCCC(Oc1ccc(C#N)c(C(F)(F)F)c1)C(=O)NCCc1ccccc1OC` (stereo not shown) [Example 51, 2-(4-Cyano-3-trifluoromethyl-phenoxy)-pentanoic acid-[2-(2-methoxy-phenyl)ethyl]-amide], in experiment [2], the 50% inhibitory concentration (IC50) was found to be 381 nM. In the case of `Cc1cccnc1CNC(=O)C(CC(C)C)Oc1ccc(C#N)c(C(F)(F)F)c1` (stereo not shown) [Example 20, 2-(4-Cyano-3-trifluoromethyl-phenoxy)-4-methyl-pentanoic acid (3-methyl-pyridin-2-yl-methyl)-amide], in experiment [2], the IC50 is 410 nM. In the case of `Cc1ccc(NC(=O)C(CC(C)C)Oc2ccc(C#N)c(C(F)(F)F)c2)cc1O` (stereo not shown) [Example 88, 2-(4-Cyano-3-trifluoromethyl-phenoxy)-4-methyl-pentanoic acid (3-hydroxy-4-methyl-phenyl)-amide], the IC50 in experiment [2] came to 296 nM.

For the molecule `CCNC(=O)C(CC(C)C)Oc1ccc(C#N)c(C(F)(F)F)c1` (stereo not shown) [Example 3, 2-(4-Cyano-3-trifluoromethyl-phenoxy)-4-methyl-pentanoic acid ethylamide], the IC50 in experiment [2] worked out at 247 nM. As for `CCCC(Oc1ccc(C#N)cc1Cl)C(=O)OCC` (stereo not shown) [Example 100, 2-(2-Chloro-4-cyano-phenoxy)-pentanoic acid ethyl ester], the IC50 in experiment [2] came out at 347 nM. Turning to `CC(C)CC(Oc1ccc(C#N)c(C(F)(F)F)c1)C(=O)NCC1Cc2ccccc2CO1` (stereo not shown) [Example 27, 2-(4-Cyano-3-trifluoromethyl-phenoxy)-4-methyl-pentanoic acid (isochroman-3-yl-methyl)-amide], the IC50 in experiment [2] worked out at 214 nM. For `COc1ccc([C@@H](C)NC(=O)C(CC(C)C)Oc2ccc(C#N)c(C(F)(F)F)c2)cc1` (stereo in doubt) [Example 110, 2-(4-Cyano-3-trifluoromethyl-phenoxy)-4-methyl-pentanoic acid [1-(4-methoxy-phenyl)-ethyl]-amide], the IC50 in experiment [2] worked out at 340 nM.

`COc1cccc(CNC(=O)C(CC(C)C)Oc2ccc(C#N)c(C(F)(F)F)c2)c1` (stereo not shown) [Example 71, 2-(4-Cyano-3-trifluoromethyl-phenoxy)-4-methyl-pentanoic acid-3-methoxy-benzylamide]: the IC50 in experiment [2] is 288 nM. Turning to `CCC(C)CNC(=O)C(CC(C)C)Oc1ccc(C#N)c(C(F)(F)F)c1` (stereo not shown) [Example 75, 2-(4-Cyano-3-trifluoromethyl-phenoxy)-4-methyl-pentanoic acid-(2-methyl-butyl)amide], the IC50 in experiment [2] stood at 417 nM. As to `CCCC(Oc1ccc(C#N)c(C(F)(F)F)c1)C(=O)NC(C)c1cccs1` (stereo not shown) [Example 17, 2-(4-Cyano-3-trifluoromethyl-phenoxy)-pentanoic acid (1-thiophen-2-yl-ethyl)amide], in experiment [2], the IC50 turned out to be 1000 nM. On to `CCCC(Oc1ccc(C#N)c(C(F)(F)F)c1)C(=O)NCc1cccc(OC)c1` (stereo not shown) [Example 40, 2-(4-Cyano-3-trifluoromethyl-phenoxy)-pentanoic acid-3-methoxy-benzylamide], for which, in experiment [2], the IC50 was found to be 241 nM. For `CCCC(Oc1ccc(C#N)c(C(F)(F)F)c1)C(=O)Nc1ccc(C)c(O)c1` (stereo not shown) [Example 116, 2-(4-Cyano-3-trifluoromethyl-phenoxy)-pentanoic acid (3-hydroxy-4-methyl-phenyl)-amide], the IC50 in experiment [2] was 296 nM. The same measure, in the same setting: under `CCCC(Oc1ccc(C#N)c(C(F)(F)F)c1)C(=O)NCCSC` (stereo not shown) [Example 90, 2-(4-Cyano-3-trifluoromethyl-phenoxy)-pentanoic acid (2-methylsulfanyl-ethyl)amide] stands 736 nM. On to `CC(C)CC(Oc1ccc(C#N)c(C(F)(F)F)c1)C(=O)NC(C)c1ccc(O)cc1` (stereo not shown) [Example 69, 2-(4-Cyano-3-trifluoromethyl-phenoxy)-4-methyl-pentanoic acid [1-(4-hydroxyphenyl)-ethyl]-amide], for which the IC50 in experiment [2] was 341 nM. Take `CCCC(Oc1ccc(C#N)c(C(F)(F)F)c1)C(=O)NCCCSC` (stereo not shown) [Example 89, 2-(4-Cyano-3-trifluoromethyl-phenoxy)-pentanoic acid (3-methylsulfanyl-propyl)amide]: the IC50 in experiment [2] stood at 486 nM.

The values above are taken from patent publication US7507860B2 (Pfizer Inc., priority 2004, dated 2009).
